{"source": "paper PMC6027146", "about": "“Synthesis and Structure-Activity Relationships of (−)-cis-N-Normetazocine-Based LP1 Derivatives” (Pharmaceuticals, 2018)", "key": {"DOR [1]": {"tested_on": "DOR", "set-up": "method as in PMID 22100511", "details": "10 nM; cited from earlier work"}, "recombinant human MOR": {"target": "T1, recombinant human MOR (Homo sapiens, UniProt P35372)", "T1 construct": "expressed in transfected cells; gift of Dr. Larry Toll (SRI International); infected with a retrovirus for Gαqi5", "T1 sequence (P35372 whole entry)": "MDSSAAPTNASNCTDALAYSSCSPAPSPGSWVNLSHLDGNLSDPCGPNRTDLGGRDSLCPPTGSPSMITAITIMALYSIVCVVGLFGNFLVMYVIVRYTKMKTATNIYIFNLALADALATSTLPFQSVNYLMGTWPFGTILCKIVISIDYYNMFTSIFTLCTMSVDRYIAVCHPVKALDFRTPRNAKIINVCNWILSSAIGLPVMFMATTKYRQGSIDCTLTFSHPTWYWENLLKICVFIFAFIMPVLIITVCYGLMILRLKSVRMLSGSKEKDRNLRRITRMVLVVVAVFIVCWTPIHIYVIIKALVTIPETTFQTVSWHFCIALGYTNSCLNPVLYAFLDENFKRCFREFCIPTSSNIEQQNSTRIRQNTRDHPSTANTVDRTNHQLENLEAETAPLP", "experiment": "Calcium mobilization assay, CHO-MOR cells expressing Gαqi5", "assay_type": "cell-based", "description": "CHO cells, expressing human opioid receptors and the Gαqi5 protein, and CHODOR, expressing the GαqG66Di5 protein, were maintained in culture medium consisting of Dulbecco minimum essential medium (DMEM) and Ham F-12 (1:1) (50/50) supplemented with 10% fetal calf serum (FCS), L-glutamine (2 mM), geneticin (200 μg/mL; G418), hygromycin B (100 μg/mL) at 37 °C in 5% CO2 humidified air. When confluence was reached (3–4 days), cells were subcultured as required using trypsin/EDTA, and used for experimentation. The different cell lines were seeded at a density of 50,000–40,000 cells/well into black 96-well, clear-bottomed plates. […] After placing both plates (cell culture and compound plate) into the FlexStation II (Molecular Device, Union City, San Jose, CA 94587, USA), fluorescence changes were measured at room temperature. […] Maximum change in fluorescence, expressed in percent of baseline fluorescence, was used to determine agonist response.\nIn calcium mobilization experiments, data were analyzed by non-linear curve fitting equation, using GraphPad 5.0 software. […] Ligand efficacy was expressed as intrinsic activity (α), calculated as the ratio between the Emax of the ligand and that of the respective standards. Calcium mobilization data were expressed as FIU (fluorescence intensity units) in percent, over the baseline. […]"}, "human-KOR": {"target": "human-KOR (Homo sapiens, UniProt P41145)", "sequence (P41145 whole entry)": "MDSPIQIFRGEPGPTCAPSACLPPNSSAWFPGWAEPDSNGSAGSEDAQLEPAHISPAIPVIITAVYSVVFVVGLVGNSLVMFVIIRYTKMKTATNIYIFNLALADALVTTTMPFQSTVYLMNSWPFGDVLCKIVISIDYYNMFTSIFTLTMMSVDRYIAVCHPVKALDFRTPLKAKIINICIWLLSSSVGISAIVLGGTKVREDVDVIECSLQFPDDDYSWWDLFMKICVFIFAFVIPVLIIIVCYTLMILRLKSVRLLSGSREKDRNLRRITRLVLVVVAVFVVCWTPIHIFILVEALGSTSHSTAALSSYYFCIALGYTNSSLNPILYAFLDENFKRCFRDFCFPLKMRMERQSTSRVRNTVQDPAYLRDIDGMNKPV", "experiment": "Calcium mobilization assay, CHO-KOR cells expressing Gαqi5", "assay_type": "cell-based", "set-up": "expressed in transfected cells; gift of Dr. Larry Toll (SRI International); infected with a retrovirus for Gαqi5", "details": "agonist mode; Inactive = inactive at 10 μM; crc incomplete = incomplete concentration response curve at 10 μM; listed as LP1 (1)", "procedure": "The pharmacological characterization of LP1 derivatives 2 and 10–16 was performed by calcium mobilization assay (Table 2). This procedure was preliminarily validated through a series of experiments where the effects of DPDPE, dermorphin, and dynorphin A were assessed in CHO cells expressing the human recombinant opioid receptors and Gαqi5 or GαqG66Di5 chimeric proteins.\nChinese hamster ovary (CHO) cells expressing the recombinant human MOR and KOR (CHO^MOR and CHO^KOR) were kindly provided by Dr. Larry Toll (SRI International, Menlo Park, CA, USA), and CHO cells expressing the recombinant human DOR (CHO^DOR) were supplied by Dr. Eva Varga (Department of Medical Pharmacology, The University of Arizona, Tucson, AZ, USA). CHO cells lines permanently coexpressing the opioid receptors and the C-terminally modified Gαqi5 were prepared by infecting the CHO lines described above with a recombinant retrovirus expressing the chimeric α subunit and the hygromycin resistance gene. Similarly, CHO cells lines permanently coexpressing DOR and the C-terminally modified GαqG66Di5 were prepared by infecting the CHO lines described above with a recombinant retrovirus expressing the chimeric α subunit and the hygromycin resistance gene. Polyclonal cell lines were generated using the pantropic retroviral expression system form BD-Clontech, as described previously. Stable lines were selected under hygromycin B (100 μg/mL) and geneticin (600 μg/mL) for 2–3 weeks after the infection.\nCHO cells, expressing human opioid receptors and the Gαqi5 protein, and CHODOR, expressing the GαqG66Di5 protein, were maintained in culture medium consisting of Dulbecco minimum essential medium (DMEM) and Ham F-12 (1:1) (50/50) supplemented with 10% fetal calf serum (FCS), L-glutamine (2 mM), geneticin (200 μg/mL; G418), hygromycin B (100 μg/mL) at 37 °C in 5% CO2 humidified air. When confluence was reached (3–4 days), cells were subcultured as required using trypsin/EDTA, and used for experimentation. The different cell lines were seeded at a density of […] into black 96-well, clear-bottomed plates. After 24 h incubation, the cells were loaded with medium supplemented with 2.5 mM probenecid, 3 μM of the calcium sensitive fluorescent dye Fluo-4 AM, and 0.01% pluronic acid, for 30 min at 37 °C. Afterwards, the loading solution was aspirated and 100 μL/well of assay buffer—HBSS supplemented with 20 mM HEPES, 2.5 mM probenecid and 500 μM Brilliant Black (Aldrich, St. Louis, MO, USA)—was added. Serial dilutions of ligands for experimental use were made in HBSS/HEPES (20 mM) buffer (containing 0.005% BSA fraction V). After placing both plates (cell culture and compound plate) into the FlexStation II (Molecular Device, Union City, San Jose, CA 94587, USA), fluorescence changes were measured at room temperature. Online additions were carried out in a volume of 50 μL/well. Antagonists were incubated 15 min before the addition of the agonist. Maximum change in fluorescence, expressed in percent of baseline fluorescence, was used to determine agonist response.\nAnalysis of the binding data was performed using the Origin 7.5 software (OriginLab Corporation, Northampton, MA, USA). In calcium mobilization experiments, data were analyzed by non-linear curve fitting equation, using GraphPad 5.0 software. […] Ligand efficacy was expressed as intrinsic activity (α), calculated as the ratio between the Emax of the ligand and that of the respective standards. Calcium mobilization data were expressed as FIU (fluorescence intensity units) in percent, over the baseline. Agonist potencies are given as pEC50 (the negative logarithm to base 10 of the molar concentration of an agonist that produces 50% of the maximal possible effect, Emax). Concentration response curves to agonists were fitted with the following equation: Effect = baseline + (Emax − baseline)/(1+10^(LogEC50 − X) ∗ HillSlope) where X is the agonist concentration. […]"}, "[2]": {"tested_on": "cells expressing the GαqG66Di5 chimeric protein, but not DOR", "experiment": "Calcium mobilization in cells expressing the GαqG66Di5 chimeric protein, but not DOR", "assay_type": "cell-based", "details": "up to 10 μM; data not shown", "excerpt": "The LP1 functional profile at DOR, previously in vitro detected by adenylyl cyclase, and the [^35S]GTPγS binding assays was controversial. […] Similar findings with DOR spontaneous activity and effects of DOR antagonists have been previously described. This effect was reversed at higher LP1 concentrations. These [^35S]GTPγS binding results reveal the role of LP1 as a DOR antagonist ligand. […] The DOR antagonist profile of LP1 was also detected in vivo by rat tail flick test. […] The remaining LP1 derivatives 11–16 were not able to stimulate calcium mobilization in CHO^DOR cells stably expressing the GαqG66Di5 protein. […]\nCHO cells, expressing human opioid receptors and the Gαqi5 protein, and CHODOR, expressing the GαqG66Di5 protein, were maintained in culture medium consisting of Dulbecco minimum essential medium (DMEM) and Ham F-12 (1:1) (50/50) supplemented with 10% fetal calf serum (FCS), L-glutamine (2 mM), geneticin (200 μg/mL; G418), hygromycin B (100 μg/mL) at 37 °C in 5% CO2 humidified air. […] After placing both plates (cell culture and compound plate) into the FlexStation II (Molecular Device, Union City, San Jose, CA 94587, USA), fluorescence changes were measured at room temperature. […] Maximum change in fluorescence, expressed in percent of baseline fluorescence, was used to determine agonist response."}, "DOR [3]": {"tested_on": "DOR", "set-up": "method as in PMID 20599386", "details": "less potent than DPDPE; cited from earlier work"}}}
{"compound": "C[C@H]1[C@H]2Cc3ccc(O)cc3[C@]1(C)CCN2CCC(=O)Nc1ccccc1", "note": "[LP1, 3-[(2R,6R,11R)-8-hydroxy-6,11-dimethyl-1,4,5,6-tetrahydro-2,6-methano-3-benzazocin-3(2H)-yl]-N-phenylpropanamide, reference compound]", "values": [{"measurement": "inhibition of [35S]GTPγS binding", "setting": "DOR [1]", "result": 30, "unit": "%"}, {"measurement": "EC50", "setting": "recombinant human MOR", "result": 97.7, "unit": "nM"}, {"measurement": "intrinsic activity (α) at MOR", "setting": "recombinant human MOR; ratio of Emax of ligand to that of the standard", "result": "0.40 ± 0.020"}, {"measurement": "KOR pEC50 (CL95%)", "setting": "human-KOR", "result": "crc incomplete ^d"}, {"measurement": "calcium mobilization in cells without DOR", "setting": "[2]", "result": "completely inactive"}, {"measurement": "potency in inhibiting cAMP accumulation relative to DPDPE (fold less potent)", "setting": "DOR [3]", "result": "approximately 85 fold"}]}
